Among the data in US9062071B2, “Substituted piperidines as HDM2 inhibitors” (Merck Sharp & Dohme Corp, priority 2011, dated 2015) are IC50 values, retold here.

Structures are written as SMILES.

The assay concerns the target HDM2 protein (Homo sapiens, UniProt Q00987). The assay is described as follows: fluorescence polarization screening assay (FP IC50). It counts as binding. How it is done:
The compounds were evaluated to determine activity at the HDM2 protein by known methods such as the fluorescence polarization screening assay that measures the inhibitory concentration that achieves 50% of maximal activity (FP IC50) and the dissociation constant for inhibitor binding (FP Ki). [Zhang et al., J. Analytical Biochemistry 331: 138-146 (2004)].

Sequence of HDM2 protein (Q00987 whole entry): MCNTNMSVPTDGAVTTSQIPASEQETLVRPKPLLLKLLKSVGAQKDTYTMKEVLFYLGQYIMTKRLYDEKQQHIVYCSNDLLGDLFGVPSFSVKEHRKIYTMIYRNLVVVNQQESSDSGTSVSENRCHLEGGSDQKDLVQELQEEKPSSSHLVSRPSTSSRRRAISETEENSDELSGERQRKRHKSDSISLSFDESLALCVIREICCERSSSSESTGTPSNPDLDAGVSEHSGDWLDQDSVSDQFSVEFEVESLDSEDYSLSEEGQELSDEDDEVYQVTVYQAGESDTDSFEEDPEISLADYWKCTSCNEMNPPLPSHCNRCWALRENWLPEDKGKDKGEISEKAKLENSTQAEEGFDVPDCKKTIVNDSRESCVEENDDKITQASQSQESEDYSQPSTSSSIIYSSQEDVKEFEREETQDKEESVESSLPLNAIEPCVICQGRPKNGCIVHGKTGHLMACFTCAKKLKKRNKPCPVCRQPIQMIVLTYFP

Turning to `CCC[C@H]1N(C(=O)c2ncccc2C(F)(F)F)CCC[C@@]1(Oc1csc(C(F)(F)F)c1)C(=O)N1CCc2cc(Cl)ccc2C1CC(C)(C)C(=O)NS(C)(=O)=O` (single isomer, unassigned) [Compound A68], for the setting “class symbols”, the IC50 is 1 to 100 nM. As to `CCC[C@H]1N(C(=O)c2ncccc2C(F)(F)F)CCC[C@@]1(Oc1csc(C(F)(F)F)c1)C(=O)N1CCc2cc(Cl)ccc2C1CC(C)(C)C(=O)NS(C)(=O)=O` (single isomer, unassigned) [Compound A69], the IC50 (class symbols) fell in the range of 1 to 100 nM. `CCC[C@H]1N(C(=O)c2ncccc2C(F)(F)F)CCC[C@@]1(Oc1csc(C(F)(F)F)c1)C(=O)N1Cc2cc(F)ccc2CC1C(=O)O` (stereo in doubt) [Compound A126, (3S)-7-fluoro-2-{[(2R,3S)-2-propyl-1-{[3-(trifluoromethyl)pyridin-2-yl]carbonyl}-3-{[5-(trifluoromethyl)thiophen-3-yl]oxy}piperidin-3-yl]carbonyl}-1,2,3,4-tetrahydroisoquinoline-3-carboxylic acid] showed a concentration for half-maximal inhibition (IC50) (class symbols) of 1 to 100 nM. For `COCCN(CCOC)CC[C@H]1N(C(=O)c2cnccc2C(F)(F)F)CCC[C@@]1(Oc1csc(C(F)(F)F)c1)C(=O)N1CCc2ccc(Cl)cc2C1` [Compound A1, 2-[(2R,3S)-3-[(7-chloro-3,4-dihydroisoquinblin-2(1H)-yl)carbonyl]-1-{[4-(trifluoromethyl)byridin-3-yl]carbonyl}-3-{[5-(trifluoromethyl)thiophen-3-yl]oxy}piperidin-2-yl]-N,N-bis(2-methoxyethyl)ethanamine], the IC50 (numeric value) is 472000 nM.

`COCCN(CCOC)CC[C@H]1N(C(=O)c2cnccc2C(F)(F)F)CCC[C@@]1(Oc1csc(C(F)(F)F)c1)C(=O)N1CCc2cc(Cl)ccc2C1` [Compound A2, 2-[(2R,3S)-3-[(6-chloro-3,4-dihydroisoquinblin-2(1H)-yl)carbonyl]-1-{[4-(trifluoromethyl)byridin-3-yl]carbonyl}-3-{[5-(trifluoromethyl)thiophen-3-yl]oxy}piperidin-2-yl]-N,N-bis(2-methoxyethyl)ethanamine] came in with an IC50 (class symbols) of 1 to 100 nM.

In the case of `O=C(c1cnccc1C(F)(F)F)N1CCC[C@@](Oc2csc(C(F)(F)F)c2)(C(=O)N2CCc3ccc(Cl)cc3C2)[C@H]1CCN1CCOCC1` [Compound A3, 7-chloro-2-{[(2R,3S)-2-(2-morpholin-4-ylethyl)-1-{[4-(trifluoromethyl)pyridin-3-yl]carbonyl}-3-{[5-(trifluoromethyl)thiophen-3-yl]oxy}piperidin-3-yl]carbonyl}-1,2,3,4-tetrahydroisoquinoline], the half-maximal inhibitory concentration (IC50) (class symbols) was 101 to 20000 nM.

For `O=C(c1cnccc1C(F)(F)F)N1CCC[C@@](Oc2csc(C(F)(F)F)c2)(C(=O)N2CCc3cc(Cl)ccc3C2)[C@H]1CCN1CCOCC1` [Compound A4, 6-chloro-2-{[(2R,3S)-2-(2-morpholin-4-ylethyl)-1-{[4-(trifluoromethyl)pyridin-3-yl]carbonyl}-3-{[5-(trifluoromethyl)thiophen-3-yl]oxy}piperidin-3-yl]carbonyl}-1,2,3,4-tetrahydroisoquinoline], under “class symbols”, the IC50 fell in the range of 1 to 100 nM.

Under “class symbols”, `CCC[C@H]1N(C(=O)c2ncccc2C(F)(F)F)CCC[C@@]1(Oc1csc(C(F)(F)F)c1)C(=O)N1CCc2ccc(C#N)cc2C1` [Compound A5, 2-{[(2R,3S)-2-propyl-1-{[3-(trifluoromethyl)pyridin-2-yl]carbonyl}-3-{[5-(trifluoromethyl)thiophen-3-yl]oxy}piperidin-3-yl]carbonyl}-1,2,3,4-tetrahydroisoquinoline-7-carbonitrile] gave an IC50 of 101 to 20000 nM.

For `CCC[C@H]1N(C(=O)c2ncccc2C(F)(F)F)CCC[C@@]1(Oc1csc(C(F)(F)F)c1)C(=O)N1CCc2ccc(C(N)=O)cc2C1` [Compound A6, 2-{[(2R,3S)-2-propyl-1-{[3-(trifluoromethyl)pyridin-2-yl]carbonyl}-3-{[5-(trifluoromethyl)thiophen-3-yl]oxy}piperidin-3-yl]carbonyl}-1,2,3,4-tetrahydroisoquinoline-7-carboxamide], where the note is “class symbols”, the half-maximal inhibitory concentration (IC50) was 101 to 20000 nM. Still for that read-out and setting: the result for `O=C(c1ncccc1C(F)(F)F)N1CCC[C@@](Oc2csc(C(F)(F)F)c2)(C(=O)N2CCc3cc(F)ccc3C2)[C@H]1CCN1CCOCC1` [Compound A7, 6-fluoro-2-{[(2R,3S)-2-(2-morpholin-4-ylethyl)-1-{[3-(trifluoromethyl)pyridin-2-yl]carbonyl}-3-{[5-(trifluoromethyl)thiophen-3-yl]oxy}piperidin-3-yl]carbonyl}-1,2,3,4-tetrahydroisoquinoline] reads 1 to 100 nM. On the same count and under the same terms, the result for `CCC[C@H]1N(C(=O)c2ncccc2C(F)(F)F)CCC[C@@]1(Oc1csc(C(F)(F)F)c1)C(=O)N1CCc2sccc2C1` [Compound A8, 5-{[(2R,3S)-2-propyl-1-{[3-(trifluoromethyl)pyridin-2-yl]carbonyl}-3-{[5-(trifluoromethyl)thiophen-3-yl]oxy}piperidin-3-yl]carbonyl}-4,5,6,7-tetrahydrothieno[3,2-c]pyridine] reads 101 to 20000 nM.

Consider `CCC[C@H]1N(C(=O)c2ncccc2C(F)(F)F)CCC[C@@]1(Oc1csc(C(F)(F)F)c1)C(=O)N1CCc2sc(C(=O)OCC)cc2C1` [Compound A9, ethyl 5-{[(2R,3S)-2-propyl-1-{[3-(trifluoromethyl)pyridin-2-yl]carbonyl}-3-{[5-(trifluoromethyl)thiophen-3-yl]oxy}piperidin-3-yl]carbonyl}-4,5,6,7-tetrahydrothieno[3,2-c]pyridine-2-carboxylate], for which the IC50 (class symbols) lay within 101 to 20000 nM. Under “class symbols”, `CCC[C@H]1N(C(=O)c2ncccc2C(F)(F)F)CCC[C@@]1(Oc1csc(C(F)(F)F)c1)C(=O)N1CCc2sc(C(=O)O)cc2C1` [Compound A10, 5-{[(2R,3S)-2-propyl-1-{[3-(trifluoromethyl)pyridin-2-yl]carbonyl}-3-{[5-(trifluoromethyl)thiophen-3-yl]oxy}piperidin-3-yl]carbonyl}-4,5,6,7-tetrahydrothieno[3,2-c]pyridine-2-carboxylic acid] showed an IC50 of 101 to 20000 nM. Still for that read-out and setting: with `CCC[C@H]1N(C(=O)c2ncccc2C(F)(F)F)CCC[C@@]1(Oc1csc(C(F)(F)F)c1)C(=O)N1CCc2cc(N)ccc2C1` [Compound A11, 2-{[(2R,3S)-2-propyl-1-{[3-(trifluoromethyl)pyridin-2-yl]carbonyl}-3-{[5-(trifluoromethyl)thiophen-3-yl]oxy}piperidin-3-yl]carbonyl}-1,2,3,4-tetrahydroisoquinolin-6-amine] the figure was 101 to 20000 nM; with `CCC[C@H]1N(C(=O)c2ncccc2C(F)(F)F)CCC[C@@]1(Oc1csc(C(F)(F)F)c1)C(=O)N1CCc2cc(Cl)ccc2C1CN1CCOCC1` (stereo partly drawn) [Compound A12, 6-chloro-1-(morpholin-4-ylmethyl)-2-{[(2R,3S)-2-propyl-1-{[3-(trifluoromethyl)pyridin-2-yl]carbonyl}-3-{[5-(trifluoromethyl)thiophen-3-yl]oxy}piperidin-3-yl]carbonyl}-1,2,3,4-tetrahydroisoquinoline], 1 to 100 nM.

Consider `CCC[C@H]1N(C(=O)c2ncccc2C(F)(F)F)CCC[C@@]1(Oc1csc(C(F)(F)F)c1)C(=O)N1CCc2sc(Cl)cc2C1C(=O)O` (stereo partly drawn) [Compound A13, 2-chloro-5-{[(2R,3S)-2-propyl-1-{[3-(trifluoromethyl)pyridin-2-yl]carbonyl}-3-{[5-(trifluoromethyl)thiophen-3-yl]oxy}piperidin-3-yl]carbonyl}-4,5,6,7-tetrahydrothieno[3,2-c]pyridine-4-carboxylic acid], for which the 50% inhibitory concentration (IC50) (class symbols) lay in the range of 1 to 100 nM.

Where the note is “class symbols”, `CCC[C@H]1N(C(=O)c2ncccc2C(F)(F)F)CCC[C@@]1(Oc1csc(C(F)(F)F)c1)C(=O)N1CCc2sc(Cl)cc2C1C(=O)O` (stereo partly drawn) [Compound A14, 2-chloro-5-{[(2R,3S)-2-propyl-1-{[3-(trifluoromethyl)pyridin-2-yl]carbonyl}-3-{[5-(trifluoromethyl)thiophen-3-yl]oxy}piperidin-3-yl]carbonyl}-4,5,6,7-tetrahydrothieno[3,2-c]pyridine-4-carboxylic acid] yielded an IC50 of 1 to 100 nM. For the compound `CCC[C@H]1N(C(=O)c2ncccc2C(F)(F)F)CCC[C@@]1(Oc1csc(C(F)(F)F)c1)C(=O)N1CCc2cc(Cl)ccc2C1CN1CCCC1` (stereo partly drawn) [Compound A15, 6-chloro-2-{[(2R,3S)-2-propyl-1-{[3-(trifluoromethyl)pyridin-2-yl]carbonyl}-3-{[5-(trifluoromethyl)thiophen-3-yl]oxy}piperidin-3-yl]carbonyl}-1-(pyrrolidin-1-ylmethyl)-1,2,3,4-tetrahydroisoquinoline], the half-maximal inhibitory concentration (IC50) (class symbols) is 101 to 20000 nM. Under “class symbols”, `COCC1c2ccc(Cl)cc2CCN1C(=O)[C@]1(Oc2csc(C(F)(F)F)c2)CCCN(C(=O)c2ncccc2C(F)(F)F)[C@@H]1CCN1CCCC1` (stereo partly drawn) [Compound A16, 6-chloro-1-(methoxymethyl)-2-{[(2R,3S)-2-(2-pyrrolidin-1-ylethyl)-1-{[3-(trifluoromethyl)pyridin-2-yl]carbonyl}-3-{[5-(trifluoromethyl)thiophen-3-yl]oxy}piperidin-3-yl]carbonyl}-1,2,3,4-tetrahydroisoquinoline] returned an IC50 of 1 to 100 nM. For the setting “class symbols”, `COCC1c2ccc(Cl)cc2CCN1C(=O)[C@]1(Oc2csc(C(F)(F)F)c2)CCCN(C(=O)c2ncccc2C(F)(F)F)[C@@H]1CCN1CCOCC1` (stereo partly drawn) [Compound A17, 6-chloro-1-(methoxymethyl)-2-{[(2R,3S)-2-(2-morpholin-4-ylethyl)-1-{[3-(trifluoromethyl)pyridin-2-yl]carbonyl}-3-{[5-(trifluoromethyl)thiophen-3-yl]oxy}piperidin-3-yl]carbonyl}-1,2,3,4-tetrahydroisoquinoline] had an IC50 of 1 to 100 nM. On to `COCC1c2ccc(Cl)cc2CCN1C(=O)[C@]1(Oc2csc(C(F)(F)F)c2)CCCN(C(=O)c2ncccc2C(F)(F)F)[C@@H]1CC(=O)O` (stereo partly drawn) [Compound A18, [(2R,3S)-3-{[6-chloro-1-(methoxymethyl)-3,4-dihydroisoquinolin-2(1H)-yl]carbonyl}-1-{[3-(trifluoromethyl)pyridin-2-yl]carbonyl}-3-{[5-(trifluoromethyl)thiophen-3-yl]oxy}piperidin-2-yl]acetic acid], for which, for the setting “class symbols”, the IC50 lay within 1 to 100 nM.

The term IC50 denotes the point on the concentration scale where inhibition reaches its midpoint. Read a high IC50 as weaker potency in that assay.
